According to PubChem BioAssay (NCI):
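A five-concentration, 48-hour dose response in 96-well plates underlies each endpoint, interpolated linearly between surrounding concentrations. GI50 marks 50% less growth. At the TGI there is no net growth.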

How the values were obtained:
Experiment in all cases: DTP human tumour cell line panel, 48 h
NCI-H23 lung = tested on: NCI-H23 lung
SF-268 CNS = tested on: SF-268 CNS
CCRF-CEM leukemia = tested on: CCRF-CEM leukemia
HL-60(TB) leukemia = tested on: HL-60(TB) leukemia
TK-10 renal = tested on: TK-10 renal
A549 NSCLC = tested on: A549 NSCLC
BT-549 breast = tested on: BT-549 breast
SNB-19 CNS = tested on: SNB-19 CNS
HOP-62 NSCLC = tested on: HOP-62 NSCLC
NCI-H522 lung = tested on: NCI-H522 lung
RXF 393 renal = tested on: RXF 393 renal
COLO 205 colon = tested on: COLO 205 colon
A498 renal = tested on: A498 renal
HT29 colon = tested on: HT29 colon
U251 CNS = tested on: U251 CNS
M14 melanoma = tested on: M14 melanoma
OVCAR-5 ovarian = tested on: OVCAR-5 ovarian
NCI-H226 lung = tested on: NCI-H226 lung
OVCAR-8 ovarian = tested on: OVCAR-8 ovarian
CAKI-1 renal = tested on: CAKI-1 renal
RPMI-8226 leukemia = tested on: RPMI-8226 leukemia
SW-620 colon = tested on: SW-620 colon
SK-OV-3 ovarian = tested on: SK-OV-3 ovarian
SN12C renal = tested on: SN12C renal
MDA-MB-231 breast = tested on: MDA-MB-231 breast
OVCAR-3 ovarian = tested on: OVCAR-3 ovarian
T-47D breast = tested on: T-47D breast
UACC-257 melanoma = tested on: UACC-257 melanoma
SR leukemia = tested on: SR leukemia
SK-MEL-5 melanoma = tested on: SK-MEL-5 melanoma
UO-31 renal = tested on: UO-31 renal
SK-MEL-2 melanoma = tested on: SK-MEL-2 melanoma
KM12 colon = tested on: KM12 colon
HCT-15 colon = tested on: HCT-15 colon
UACC-62 melanoma = tested on: UACC-62 melanoma
NCI-H460 lung = tested on: NCI-H460 lung
SF-539 CNS = tested on: SF-539 CNS
MALME-3M melanoma = tested on: MALME-3M melanoma
MCF7 breast = tested on: MCF7 breast
IGROV1 ovarian = tested on: IGROV1 ovarian
SNB-75 CNS = tested on: SNB-75 CNS
786-0 renal = tested on: 786-0 renal
ACHN renal = tested on: ACHN renal
MOLT-4 leukemia = tested on: MOLT-4 leukemia
HCT-116 colon = tested on: HCT-116 colon
NCI/ADR-RES ovarian = tested on: NCI/ADR-RES ovarian
PC-3 prostate = tested on: PC-3 prostate
SF-295 CNS = tested on: SF-295 CNS
HS 578T breast = tested on: HS 578T breast
LOX IMVI melanoma = tested on: LOX IMVI melanoma
MDA-MB-435 = tested on: MDA-MB-435
HCC-2998 colon = tested on: HCC-2998 colon
OVCAR-4 ovarian = tested on: OVCAR-4 ovarian
SK-MEL-28 melanoma = tested on: SK-MEL-28 melanoma
K-562 leukemia = tested on: K-562 leukemia
HOP-92 NSCLC = tested on: HOP-92 NSCLC
DU-145 prostate = tested on: DU-145 prostate
EKVX NSCLC = tested on: EKVX NSCLC

`CCn1cnc(C[C@H](NC(=O)[C@@H](NC(=O)Nc2cc(C(F)(F)F)cc(C(F)(F)F)c2)C(C)C)C(=O)OC)c1` was tested, and the GI50 (NCI-H23 lung) was 2.69 µM, the TGI (NCI-H23 lung) was greater than 10 µM and the GI50 (SF-268 CNS) was 1.76 µM. For the same compound, the TGI (SF-268 CNS) was 3.4 µM, the GI50 (CCRF-CEM leukemia) was 3.38 µM and the TGI (CCRF-CEM leukemia) was greater than 10 µM. The GI50 (HL-60(TB) leukemia) was 6.18 µM, the TGI (HL-60(TB) leukemia) was greater than 10 µM and the GI50 (TK-10 renal) was 1.88 µM. It also gave a TGI (TK-10 renal) of 3.89 µM, a GI50 (A549 NSCLC) of 3.19 µM and a TGI (A549 NSCLC) greater than 10 µM. The GI50 (BT-549 breast) was 1.78 µM, the TGI (BT-549 breast) was 3.58 µM and the GI50 (SNB-19 CNS) was 1.61 µM. For the same compound, the TGI (SNB-19 CNS) was 3.19 µM, the GI50 (HOP-62 NSCLC) was 1.87 µM and the TGI (HOP-62 NSCLC) was 3.65 µM. The GI50 (NCI-H522 lung) was 1.78 µM, the TGI (NCI-H522 lung) was 3.98 µM and the GI50 (RXF 393 renal) was 1.73 µM. The TGI (RXF 393 renal) was 3.32 µM, the GI50 (COLO 205 colon) was 2.61 µM and the TGI (COLO 205 colon) was 7.07 µM. It also gave a GI50 (A498 renal) greater than 10 µM, a TGI (A498 renal) greater than 10 µM and a GI50 (HT29 colon) of 2.02 µM. It also gave a TGI (HT29 colon) of 4.1 µM, a GI50 (U251 CNS) of 1.98 µM and a TGI (U251 CNS) of 3.96 µM. The GI50 (M14 melanoma) was 3.54 µM, the TGI (M14 melanoma) was greater than 10 µM and the GI50 (OVCAR-5 ovarian) was 4.98 µM. It also gave a TGI (OVCAR-5 ovarian) greater than 10 µM, a GI50 (NCI-H226 lung) of 3.74 µM and a TGI (NCI-H226 lung) greater than 10 µM. For the same compound, the GI50 (OVCAR-8 ovarian) was 1.95 µM, the TGI (OVCAR-8 ovarian) was 3.74 µM and the GI50 (CAKI-1 renal) was greater than 10 µM. For the same compound, the TGI (CAKI-1 renal) was greater than 10 µM, the GI50 (RPMI-8226 leukemia) was 2.76 µM and the TGI (RPMI-8226 leukemia) was 8.45 µM. It also gave a GI50 (SW-620 colon) of 2.01 µM, a TGI (SW-620 colon) of 4.01 µM and a GI50 (SK-OV-3 ovarian) of 2.06 µM. For the same compound, the TGI (SK-OV-3 ovarian) was 4.41 µM, the GI50 (SN12C renal) was 1.73 µM and the TGI (SN12C renal) was 3.57 µM. The GI50 (MDA-MB-231 breast) was 1.9 µM, the TGI (MDA-MB-231 breast) was 4.11 µM and the GI50 (OVCAR-3 ovarian) was 1.82 µM. The TGI (OVCAR-3 ovarian) was 3.44 µM, the GI50 (T-47D breast) was 3.66 µM and the TGI (T-47D breast) was greater than 10 µM. For the same compound, the GI50 (UACC-257 melanoma) was greater than 10 µM, the TGI (UACC-257 melanoma) was greater than 10 µM and the GI50 (SR leukemia) was 2.38 µM. For the same compound, the TGI (SR leukemia) was 7.86 µM, the GI50 (SK-MEL-5 melanoma) was 4.31 µM and the TGI (SK-MEL-5 melanoma) was greater than 10 µM. It also gave a GI50 (UO-31 renal) greater than 10 µM, a TGI (UO-31 renal) greater than 10 µM and a GI50 (SK-MEL-2 melanoma) greater than 10 µM. For the same compound, the TGI (SK-MEL-2 melanoma) was greater than 10 µM, the GI50 (KM12 colon) was 1.89 µM and the TGI (KM12 colon) was 3.9 µM. The GI50 (HCT-15 colon) was greater than 10 µM, the TGI (HCT-15 colon) was greater than 10 µM and the GI50 (UACC-62 melanoma) was 6.45 µM. It also gave a TGI (UACC-62 melanoma) greater than 10 µM, a GI50 (NCI-H460 lung) of 2.13 µM and a TGI (NCI-H460 lung) of 4.43 µM. It also gave a GI50 (SF-539 CNS) of 3.36 µM, a TGI (SF-539 CNS) greater than 10 µM and a GI50 (MALME-3M melanoma) greater than 10 µM. For the same compound, the TGI (MALME-3M melanoma) was greater than 10 µM, the GI50 (MCF7 breast) was 1.83 µM and the TGI (MCF7 breast) was 3.8 µM. The GI50 (IGROV1 ovarian) was 2.33 µM, the TGI (IGROV1 ovarian) was 5.75 µM and the GI50 (SNB-75 CNS) was 1.61 µM. The TGI (SNB-75 CNS) was 6.82 µM, the GI50 (786-0 renal) was 1.81 µM and the TGI (786-0 renal) was 3.67 µM. For the same compound, the GI50 (ACHN renal) was 5.94 µM, the TGI (ACHN renal) was greater than 10 µM and the GI50 (MOLT-4 leukemia) was 2.99 µM. For the same compound, the TGI (MOLT-4 leukemia) was 9.35 µM, the GI50 (HCT-116 colon) was 1.86 µM and the TGI (HCT-116 colon) was 3.93 µM. For the same compound, the GI50 (NCI/ADR-RES ovarian) was greater than 10 µM, the TGI (NCI/ADR-RES ovarian) was greater than 10 µM and the GI50 (PC-3 prostate) was 1.97 µM. It also gave a TGI (PC-3 prostate) of 4.03 µM, a GI50 (SF-295 CNS) greater than 10 µM and a TGI (SF-295 CNS) greater than 10 µM. For the same compound, the GI50 (HS 578T breast) was 2.18 µM, the TGI (HS 578T breast) was 6.11 µM and the GI50 (LOX IMVI melanoma) was 2.5 µM. For the same compound, the TGI (LOX IMVI melanoma) was 7.43 µM, the GI50 (MDA-MB-435) was 3.17 µM and the TGI (MDA-MB-435) was greater than 10 µM. It also gave a GI50 (HCC-2998 colon) of 2.27 µM, a TGI (HCC-2998 colon) of 5.32 µM and a GI50 (OVCAR-4 ovarian) of 1.83 µM. The TGI (OVCAR-4 ovarian) was 3.54 µM, the GI50 (SK-MEL-28 melanoma) was 1.98 µM and the TGI (SK-MEL-28 melanoma) was 4.28 µM. It also gave a GI50 (K-562 leukemia) of 6.38 µM, a TGI (K-562 leukemia) greater than 10 µM and a GI50 (HOP-92 NSCLC) of 6.88 µM. The TGI (HOP-92 NSCLC) was greater than 10 µM, the GI50 (DU-145 prostate) was 2.26 µM and the TGI (DU-145 prostate) was 4.84 µM.
`Cc1cc2c(cc1Cl)S(=O)(=O)OC(c1ccc([N+](=O)[O-])cc1)=N2` showed a TGI (SF-268 CNS) greater than 100 µM, a TGI (CCRF-CEM leukemia) greater than 100 µM and a TGI (HL-60(TB) leukemia) greater than 100 µM. For the same compound, the TGI (TK-10 renal) was greater than 100 µM, the TGI (A549 NSCLC) was greater than 100 µM and the TGI (BT-549 breast) was greater than 100 µM. The TGI (SNB-19 CNS) was greater than 100 µM, the TGI (HOP-62 NSCLC) was greater than 100 µM and the TGI (NCI-H522 lung) was greater than 100 µM. For the same compound, the TGI (RXF 393 renal) was greater than 100 µM, the TGI (COLO 205 colon) was greater than 100 µM and the TGI (EKVX NSCLC) was greater than 100 µM. For the same compound, the TGI (A498 renal) was greater than 100 µM, the TGI (HT29 colon) was greater than 100 µM and the TGI (U251 CNS) was greater than 100 µM. The TGI (M14 melanoma) was greater than 100 µM, the TGI (NCI-H226 lung) was greater than 100 µM and the TGI (OVCAR-8 ovarian) was greater than 100 µM. For the same compound, the TGI (CAKI-1 renal) was greater than 100 µM, the TGI (RPMI-8226 leukemia) was greater than 100 µM and the TGI (SW-620 colon) was greater than 100 µM. For the same compound, the TGI (SK-OV-3 ovarian) was greater than 100 µM, the TGI (SN12C renal) was greater than 100 µM and the TGI (MDA-MB-231 breast) was greater than 100 µM. For the same compound, the TGI (OVCAR-3 ovarian) was greater than 100 µM, the TGI (T-47D breast) was greater than 100 µM and the TGI (UACC-257 melanoma) was greater than 100 µM. The TGI (SR leukemia) was greater than 100 µM, the TGI (SK-MEL-5 melanoma) was greater than 100 µM and the TGI (UO-31 renal) was greater than 100 µM. The TGI (KM12 colon) was greater than 100 µM, the TGI (HCT-15 colon) was greater than 100 µM and the TGI (UACC-62 melanoma) was greater than 100 µM. The TGI (NCI-H460 lung) was greater than 100 µM, the TGI (SF-539 CNS) was greater than 100 µM and the TGI (MALME-3M melanoma) was greater than 100 µM. The TGI (MCF7 breast) was greater than 100 µM, the TGI (IGROV1 ovarian) was greater than 100 µM and the TGI (SNB-75 CNS) was greater than 100 µM. For the same compound, the TGI (786-0 renal) was greater than 100 µM, the TGI (ACHN renal) was greater than 100 µM and the TGI (MOLT-4 leukemia) was greater than 100 µM. It also gave a TGI (HCT-116 colon) greater than 100 µM, a TGI (NCI/ADR-RES ovarian) greater than 100 µM and a TGI (PC-3 prostate) greater than 100 µM. It also gave a TGI (SF-295 CNS) greater than 100 µM, a TGI (HS 578T breast) greater than 100 µM and a TGI (LOX IMVI melanoma) greater than 100 µM. For the same compound, the TGI (MDA-MB-435) was greater than 100 µM, the TGI (HCC-2998 colon) was greater than 100 µM and the TGI (OVCAR-4 ovarian) was greater than 100 µM. It also gave a TGI (SK-MEL-28 melanoma) greater than 100 µM, a TGI (K-562 leukemia) greater than 100 µM and a TGI (HOP-92 NSCLC) greater than 100 µM. For the same compound, the TGI (DU-145 prostate) was greater than 100 µM.
